In a melting point compilation (Tetko et al.; mined from patent text by program, amines drawn as free bases though some values may be those of a salt):

SMILES	melting point
CCN1CC(COS(=O)(=O)c2ccc(C)cc2)Oc2ccccc21 (stereo not drawn)	85 to 87 °C
C[C@H](CO)Nc1ccc([N+](=O)[O-])cc1F	128 to 130 °C
CCN(c1ccc(Cl)cc1C(N)=S)S(=O)(=O)c1ccc(C)cc1	180 to 182 °C
O=C(O)c1ccccc1Oc1ccc(C(F)(F)F)cc1NS(=O)(=O)c1cc(C(F)(F)F)cc(C(F)(F)F)c1	133 to 134 °C
COc1nc(CO)ccc1CN1CC1C#N (stereo not drawn)	68 to 70 °C
CCCCCCCCCCCC(=O)N1CCN(CCO)CC1	38 to 40 °C
CCCN(CCC)CC1CCN(CCNC(=O)N2c3ccccc3C(=O)Nc3cccnc32)C1 (stereo not drawn)	134 to 138 °C
CCC(=O)C1=CCC(c2c(C)c(C)c3c(c2Cl)CC(C)(C)C3)CC1=O (stereo not drawn)	74 to 75 °C
C#Cc1ccc(C23OCC(C4CCCCC4)(CO2)CO3)cc1	190 to 192 °C
Cc1cc(=O)n2cccc(SC(=O)N(C)C)c2n1	165 to 167 °C
COC(=O)C(O)C(CC(C)C)NC(=O)C(Cc1c[nH]cn1)NC(=O)C(CC(=O)N1CCCCC1)Cc1cccc2ccccc12 (mixture of isomers)	91 to 97 °C
CC(C)CC(NC(=O)c1ccc(NCc2c[nH]cn2)cc1-c1ccccc1)C(=O)O (stereo not drawn)	114 to 116 °C
CC1(C)Oc2ccc(C(=O)CO)cc2[C@H](NC(=O)c2ccc(F)cc2)[C@H]1O	216 °C
CCC1(CC)C(=O)Nc2ccc(-c3ccc(C#N)n3C)cc21	233 to 235 °C
Cc1c(C(=O)c2cccc(C(F)(F)F)c2F)c2ccc(Cl)c(Cl)c2n1CCCNS(C)(=O)=O	181 °C
CN1C(=O)CCCc2cc(Nc3ncc(Cl)c(Nc4ccccc4C(=O)NCCO)n3)ccc21	190 to 194 °C
CCN1CCc2ccc(Nc3ncc(Cl)c(N[C@@H]4CCCC[C@H]4NC(C)=O)n3)cc2CC1	248 to 250 °C
Cc1c(NC(=O)c2ccc(OCC3CCOC3)cc2)ccc2cc(CNCC(C)(C)C)cnc12 (stereo not drawn)	129 °C
CCCCOc1nc(NC2=CCC(=C=C3CC4CCC3(C)C4(C)C)C=C2)nc(NC2=CCC(=C=C3CC4CCC3(C)C4(C)C)C=C2)n1	181 °C
CC(C)NC(=O)C1CC(=O)N(Cc2ccccc2)C1 (stereo not drawn)	122 to 124 °C
COc1cc2c(cc1OCCN(C)C)N(C(=O)c1ccc(-c3ccc(-c4noc(C)n4)cc3C)cc1)CC2	140 to 141 °C
CC(C)N(C(=O)C(Cc1ccc(C#N)cc1)NC(=O)OC(C)(C)C)C(C)C (stereo not drawn)	172 °C
c1ccc(C(OC2CCN(CCCCCNc3ccc4ncnn4n3)CC2)c2ccccc2)cc1	96 to 98 °C
CCOC(=O)C(=O)Nc1cccc(N(C)C)c1C(N)=O	133 to 135 °C

SMILES	melting point
CCCCc1sc(C(=O)O)c2c1-c1nn(C)cc1CC2	244 to 245 °C
COC(=O)c1cc(=O)c(O)co1	184 to 186 °C
O=S(=O)(c1[nH]c(-c2ccc(Cl)cc2)c(Br)c1Br)C(F)(F)F	165 to 168 °C
CCOC(=O)C1=C(COCCO)NC(C)=C(C(=O)OC)C1c1cccc(Cl)c1Cl (stereo not drawn)	120 to 121 °C
CNC(=O)NCCn1c(-c2ccc(CN3CCOCC3)c(C)c2)csc1=Nc1ccc(F)c(C)c1	139 to 140 °C
CCC(C)NC(=O)c1ncc(C)cc1C(=O)OC (stereo not drawn)	58 to 60 °C
O=C1NCCN1CC#CCN1CCCC1	71 to 75 °C
N#Cc1cc(-c2ccnc(Nc3cccc(C(F)(F)F)c3)n2)ccn1	164 to 166 °C
CC(C)n1cc(C(=O)Nc2nccs2)c2ccc(S(C)(=O)=O)cc21	247 to 249 °C
Cc1cc(C(O)CN2CCC(O)(c3ccc4c(c3)COCC4)CC2)ccc1O (stereo not drawn)	178 °C
COC(=O)Nc1nc(Cc2ccccc2)c(C(=O)c2sc(NC(=O)OC)nc2Cc2ccccc2)s1	189 to 190 °C
Nc1nc2cc(Br)ccc2c2c1nc1n2CCCO1	273 to 276 °C
O=C1c2cc([N+](=O)[O-])cc([N+](=O)[O-])c2OC12CC2	158 to 161 °C
Nc1ccc(C(=O)c2ccc(N)cc2)cc1	241 °C
Nc1ccc(-c2nc3ccccc3s2)cc1Cl	160 to 162 °C
CCOC(=O)Nc1nc(=O)c2cnn3c2n1CC=C3c1cccc(C(F)(F)F)c1	219 to 220 °C
COc1ccn(-c2nc(C)c(C(=O)NCc3ccccc3)s2)c(=O)c1	205 to 208 °C
NCCC(O)(c1ccc(-c2ccccc2)cc1)c1ccc(-c2ccccc2)cc1	176 to 178 °C
CC(=O)NCc1cc([N+](=O)[O-])ccc1C	133 to 138 °C
Cc1cc2c(c(C)c1NC=O)CC(C)(CI)O2 (stereo not drawn)	135 to 138 °C
CC(C)(C)OC(=O)NC(=S)NC(=O)OC(C)(C)C	124 to 127 °C
O=[N+]([O-])c1ccc2sc(NCCCO)nc2c1	140 to 144 °C
CCCCCCCCCCCCCCCCCCOc1ccc(OCCCc2ccccc2)c(C(=O)O)c1	68 to 70 °C
CC(C)Cn1cnc2c(NN)nc3ccccc3c21	202 to 205 °C
